Reference: PMC6560211, “ApoAI-derived peptide increases glucose tolerance and prevents formation of atherosclerosis in mice” (Diabetologia, 2019)
No end group written: not given here.

Tested on: Akt and AMPK signalling
Experiment: Tissue signalling by western blotting
Type: in vivo, mouse
Settings: soleus muscle, heart muscle and adipose depots in lean mice; 12 mg/kg i.p., 2.5 h; n=4
Method: Soleus, heart and fat samples were collected from male C57BL/6NTac mice (Taconic, Ejby, Denmark) after 12 h fasting at 9 weeks of age. The effect of RG54 on Akt and AMPK signalling in vivo was then measured by western blot using the following antibodies (all sourced from Cell Signaling Technology/Bionordika, Stockholm, Sweden): pAKT (#4060, 1:2000), Akt (#4691, 1:1000), pAMPK (#2535, 1:1000), AMPK (#2603, 1:1000) and GAPDH (#D16H11, 1:1000). All antibodies were diluted in Tris-buffered saline (154 mmol/l NaCl) with Tween-20 containing 1% BSA and were validated by the manufacturer. See ESM Methods for more details.
In vitro: glucose uptake measurements
C2C12 […] myoblasts (ATCC #CRL-1772) were grown in DMEM (ATCC) supplemented with 10% FBS (Sigma) and 1% Penicillin, Streptomycin and Amphotericin B (Invitrogen) and maintained at 37°C and 5% CO2. Differentiation to myotubes was achieved by switching from growth media to 2% FBS DMEM for 7 days. […]
No statistical methods were used to predetermine sample sizes, but sample sizes are similar to those reported in the field. […] Group allocation was blinded for all mouse work when possible (such as collection of blood or tissues, sample quantification and analysis, and atherosclerosis scoring). […]
protein concentrations were analysed with Bradford protein assay. […]

Substance: Ac-AEYHAKATEHLSTLSEKAKPALEDLRQGLLPVLESFKVSFLSALEEYTKKLNTQ [RG54]
- AMPK and Akt phosphorylation: minor to no changes
